Consider two molecules from patent US20140031388A1, “AKT INACTIVATION BY TOCOPHERYL DERIVATIVES” (priority 2012, published 2014).

Like-named read-outs stand apart in the source and are kept apart here.

Usually IC50 stands for the point on the concentration scale where inhibition reaches its midpoint. A word on the Kd: it is the free concentration of one partner at which half of the binding sites on the other are occupied at equilibrium, for simple one-to-one binding.

The subject of one series is PC-3 cells. Put plainly: MTT viability assay, PC-3. The settings on record: Homo sapiens. Format: cell-based. The protocol:
The prostate cancer cell lines, LNCaP and PC-3, were purchased from American Type Culture Collection (Manassas, Va.) and maintained in RPMI 1640 medium containing 10% heat-inactivated fetal bovine serum at 37° C. in a humidified incubator containing 5% CO2. The LNCaP-abl cells were a generous gift from Dr. Qianben Wang (The Ohio State University). Normal prostate epithelial cells were purchased from Lonza (Walkersville, Md.) and were cultured in the vendor-recommended defined prostate epithelial cell growth medium. For experiments, LNCaP cells were plated on poly-D-lysine-coated culture flasks at a density of 12,000 cells per cm^2 surface area for 24 hours, followed by treatment with test agents in serum-free RPMI 1640 medium. The α- and γ-tocopherols were purchased from Sigma-Aldrich (St. Louis, Mo.). The tocopherol derivatives, α- and γ-VE5, were synthesized by the inventors.
LNCaP cells were plated into poly-D-lysine-coated 96-well plates and PC-3 and LNCaP-abl cells into uncoated plates at the density of 5,000 cells per well in the presence of 10% FBS. Normal prostate epithelial cells were plated into uncoated plates at a density of 8,000 cells per well. […] After 24 hours of treatment, cells were incubated with MTT [3-(4,5-dimethylthiazol-2-yl)-2,5-diphenyl-2H-tetrazolium bromide] (TCI America; 0.5 mg/ml, final concentration) for an additional 2 hours. The medium was then removed from each well and replaced with DMSO to dissolve the reduced MTT dye for subsequent colorimetric measurement of absorbance at 595 nm. Cell viabilities are calculated as percentages of that in the corresponding vehicle-treated control group.
(Formazan colour is commonly taken as a measure of viable cells.)

The test system of series [1] is PC-3-luc xenograft tumors. Nature of the series: PC-3-luc subcutaneous xenograft in athymic nude mice. Type of series: in vivo. The note with it: 50 mg/kg daily intraperitoneal, 21 days. The protocol:
(§1) Male athymic nude mice (Hsd:Athymic Nude-Foxn1^nu/nu, 5-7 weeks of age) were purchased from Harlan Laboratories and group-housed under conditions of constant photoperiod (12 hours light: 12 hours dark) with ad libitum access to sterilized food and water. Ectopic tumors were established in athymic nude mice by subcutaneous injection of 1×10^6 PC-3-luc or 2×10^6 LNCaP-abl cells in a total volume of 0.1 mL serum-free medium containing 50% Matrigel (BD Biosciences). The establishment and growth of tumors were monitored weekly by measurement with calipers (tumor volume=width^2×length×0.52) and bioluminescence (PC-3-luc) using the IVIS™ imaging system (Xenogen Corporation, Alameda, Calif.). For bioluminescent imaging, mice anesthetized with isoflurane were imaged at 15, 20 and 25 min after intraperitoneal administration of firefly luciferin (150 mg/kg; Caliper Life Sciences) to capture maximal luminescence. Data acquisition and analysis were achieved using the Living Image® software (Xenogen). […] Body weights and tumor burdens were measured weekly. At the study endpoint, mice were euthanized, and blood was collected by cardiac puncture from all mice and submitted to The Ohio State University Comparative Pathology and Mouse Phenotyping Shared Resource for determination of complete blood counts and serum chemistry.

In series [2] the test system is LNCaP-abl xenograft tumors. Put plainly: LNCaP-abl subcutaneous xenograft in athymic nude mice. Type of series: in vivo. The protocol: as §1
In series [3] the target is VL2-deleted mutant of the PH domain of Akt (Homo sapiens, UniProt P31749). Put plainly: Surface plasmon resonance binding, VL2-deleted Akt PH domain. The note with it: SPR. As for the experimental part: Binding experiments were performed using a Biacore T100 system (GE Healthcare, Piscataway, N.J.). The GST-PH domain fusion proteins were immobilized on a CM5 S Sensorchip using Biacore's Amine Coupling Kit to a level of 17,000 response units. VE5 compounds and di-octanoyl PIP3 at concentrations ranging from 0.1 to 100 μM and 1 to 20 μm, respectively, were injected at a high flow rate (30 μL/min) over the biosensor surface for binding analyses. DMSO concentrations in all samples and running buffer were 1% (v/v) or less. Data were analyzed using Biacore T100 Evaluation Software.
On the technique in general: SPR reads the build-up and loss of mass on a sensor chip optically.

For series [4], the system named is PDK-1 membrane localization. Nature of the series: Immunofluorescence, membrane localization of PDK-1 at higher concentrations. The note with it: 6 hours of exposure. Type of series: cell-based. The protocol:
Cells were stained for endogenous PH domain-containing proteins (Akt, PHLPP, PDK-1, ILK, BTK) by incubation with specific antibodies (1:100), followed by incubation with the Alexa Fluor 555-conjugated goat anti-rabbit or Alexa Fluor 488-conjugated goat anti-mouse IgG (1:200) at room temperature for 2 hours. Both primary and secondary antibodies were diluted in incubation buffer containing 0.1% Triton X-100 and 0.2% bovine serum albumin in PBS. The cells were washed in PBS after each step and mounted using […] mounting medium supplemented with DAPI (Vector Laboratories Inc., Burlingame, Calif.). The slides were allowed to set for at least 4 hours before confocal images were acquired using a Zeiss LSM 510 inverted confocal laser scanning microscope operated with Zeiss LSM 510 software. Image analysis was performed using ImageJ (NIH) software.

A short description of series [5]: Toxicologic evaluation in PC-3-luc tumor-bearing mice. Format: in vivo. As for the experimental part: as §1
The mark [6] stands for this setting: 50 mg/kg daily intraperitoneal, 21 days.
[7] abbreviates: values within the normal ranges for mice.

Chain of VL2-deleted mutant of the PH domain of Akt (P31749 whole entry, looked up, stated change not applied, the tested form may be a part): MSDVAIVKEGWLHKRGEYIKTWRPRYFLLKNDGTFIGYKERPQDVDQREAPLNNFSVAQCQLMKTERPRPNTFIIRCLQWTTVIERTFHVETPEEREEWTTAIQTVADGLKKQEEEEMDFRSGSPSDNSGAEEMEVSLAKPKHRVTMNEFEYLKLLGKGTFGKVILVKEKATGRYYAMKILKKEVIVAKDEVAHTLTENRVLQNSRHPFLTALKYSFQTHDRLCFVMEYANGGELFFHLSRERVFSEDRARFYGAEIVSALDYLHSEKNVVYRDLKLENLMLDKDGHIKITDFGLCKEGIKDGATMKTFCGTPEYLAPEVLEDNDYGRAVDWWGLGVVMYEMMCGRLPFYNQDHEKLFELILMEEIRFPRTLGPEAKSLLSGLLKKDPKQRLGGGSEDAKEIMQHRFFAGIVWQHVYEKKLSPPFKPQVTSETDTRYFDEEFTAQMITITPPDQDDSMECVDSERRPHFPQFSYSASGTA

As for `Cc1c(C)c2c(c(C)c1O)CC[C@@](C)(CCCC(C)C)O2` [α-VE5, (R)-2,5,7,8-tetramethyl-2-(4-methylpentyl)-chroman-6-ol], in the series on PC-3 cells (PC-3, 1% FBS-containing or serum-free RPMI 1640 medium for 24 h, read-out: IC50 (μM) PC-3), the half-maximal inhibitory concentration (IC50) came out at 15 µM.
On to `Cc1c(O)cc2c(c1C)O[C@](C)(CCCC(C)C)CC2` [γ-VE5, (R)-2,7,8-trimethyl-2-(4-methylpentyl)-chroman-6-ol], for which, in series [1] (P<0.05), the “PC-3-luc tumor growth relative to vehicle-treated controls (bioluminescence)” value is “inhibited PC-3-luc tumor growth”. Further, the “intratumoral phosphorylation of Akt, MDM2 and IKKα” value in series [1] (PC-3-luc tumors) is recorded as “suppressed phosphorylation of Akt at Ser^473 without disrupting that at Thr^308”. In addition, the “LNCaP-abl tumor growth relative to vehicle-treated controls” value in series [2] (setting [6]) is recorded as “significantly inhibited tumor growth”. Moreover, in series [2] (LNCaP-abl tumors, relative to vehicle-treated controls), the “intratumoral phosphorylation of Akt at Ser473, MDM2 and IKKα” value is “reduced phosphorylation”. In addition, the IC50 in the series with PC-3 cells (PC-3, 24 h, 1% FBS-containing or serum-free RPMI 1640 medium for 24 h, read-out: IC50 (μM) PC-3) was 8 µM; with PC-3 cells (PC-3, Table 3, antitumor activities against PC-3 cells, read-out: IC50), 8.5 µM. This molecule had a Kd in series [3] of 30 ± 4 µM. Also, the “membrane-associated PDK-1, share of total immunofluorescence signal” value in series [4] (25 μM) is recorded as “approximately 50%”; in series [4] (35 μM), “greater than 90%”. Besides, in series [5] (setting [6]), the “gross pathology findings at necropsy” value is “abdominal adhesions and variable amounts of clear fluid within the abdomen”. In addition, the “change of mean body weight over the treatment period” value in series [5] (50 mg/kg daily intraperitoneal, 21 days, vehicle −0.2 grams) is reported as −0.7 grams; in series [5] (50 mg/kg daily intraperitoneal, 21 days, vehicle −0.7%), −2.3%. For the same molecule, in series [5] (setting [7]), the “hematological findings relative to controls” value was “reductions in hematocrit, red blood cell numbers and hemoglobin concentration”. The serum chemistry findings result in series [5] (setting [7]) is “increase in aspartate aminotransferase and a decrease in serum albumin concentrations”.
